In US8871900B2, “Fibroblast growth factor (FGF) analogs and uses thereof” (University of Rochester, priority 2008, dated 2014):
Peptide text beside a SMILES is read from it.

Experiments:
[1] = system: Balb/c mice exposed to TBI; assay: Survival after TBI (BM syndrome / ARS); assay type: in vivo, mouse (Balb/c); details: for mice survived: Balb/c
[2] = Tail vein bleeding time after 4 Gy TBI; assay type: in vivo, mouse; details: 10 days after 4 Gy TBI; FGF-P 15 mg/kg daily for 3 days then every other day for 3 times
Source text: The bleeding is stopped by coagulant cascade, mainly the platelet aggregation, the vessel contraction and thrombosis which are trigged by the released platelet granules (Francis 2007, Khorana 2005). IR blocks the megakaryocytopoiesis and reduces the thrombocytopoiesis (an imbalance between the synthesis and consuming of coagulant proteins), which leads to a prolonged bleeding time. To determine if FGF-P has any effect on the bleeding time, the a single tail vein at the same anatomy position was cut in same depth and merged into 37° C. warm water, the time between bleeding and stopping was recorded. The test was performed on 10 days after 4 Gy TBI.

[3] = system: proliferating crypts of small intestine; assay: Crypt assay of small intestine after sub-TBI (H&E, BrdU, villi length); assay type: in vivo, mouse (Balb/c, C57BL/6)
Source text: Enhanced proliferation of crypts in small intestine: The epithelium of the small intestine has a rapid turnover, renewing every 3-7 days. The stem cells are located ⅓ of the way up the […] and active mitosis can be seen above growing into the villus and below, forming the crypt. There are no definitive markers available to identify the stem cells, and thus the number of these cells in each crypt are unknown. When the bowel is irradiated, the number of crypts remains constant up to a dose just below the LD50/7. Above that dose, there is a log-linear decrease in the number of crypts, usually measured at 3.5 days. […] Data from the crypt assay can be augmented with injection of BrdU. BrdU can be given to animals at one or more times after irradiation to determine the rate of proliferation and rate of elongation of villi.
FGF-P was then repeated daily for 2 days. At 80 hr post-IR, BrdU (120 mg/kg) was injected ip and 4 hours later (about 3.5 days post-IR), the mice were sacrificed and the duodenal, jejunal and ileal segments (3-4 pieces/segment) were harvested, fixed in formalin, processed in paraffin blocks, cut in transverse sections of the full segment circumference (5 μm thick) and stained with H&E or anti-BrdU following the standard immunochemistry procedure (23). The proliferating crypts were defined as containing 10 or more adjacent chromophilic non-Paneth cells and a lumen. The circumference of a transverse cross-section of the intestine was used as a unit. The number of proliferating crypts was counted in each circumference. At least 10 circumferences were scored per mouse and 4-5 mice were used to generate each data point.
The villi length of duodenum, jejunum and ileum was measured using a customized Imaging Pro program.

[4] = system: platelet; assay: Platelet aggregation after 4 Gy TBI; assay type: in vivo, mouse; details: day 29 after 4 Gy TBI; FGF-P right post-IR daily for 6 day; P<0.05
Source text: One of the major functions of platelet is to aggregate on the wounded site as first step to block the bleeding vessel. […] This recovery is statistically different (FIG. 18D P<0.05).

SMILES: CC(C)C[C@H](NC(=O)[C@H](C)NC(=O)[C@@H](NC(=O)[C@H](Cc1ccc(O)cc1)NC(=O)[C@H](Cc1c[nH]c2ccccc12)NC(=O)[C@H](CO)NC(=O)[C@H](CO)NC(=O)[C@H](Cc1ccc(O)cc1)NC(=O)[C@H](CCCCN)NC(=O)[C@H](CCCNC(=N)N)NC(=O)[C@H](CO)NC(=O)[C@H](CCCNC(=N)N)NC(=O)[C@H](Cc1ccc(O)cc1)NC(=O)[C@@H](N)CS)C(C)C)C(=O)N[C@@H](CCCCN)C(=O)N[C@@H](CCCNC(=N)N)C(=O)N[C@@H](CS)C(=O)O [FGF-P, CYRSRKYSSWYVALKRC] (H-CYRSRKYSSWYVALKRC-OH; N-terminus and C-terminus assumed)
- dose achieving best result ([1]; 7.1 Gy TBI, 15, 30, 60 mg/kg tested): 60 mg/kg
- dose dependence of mitigation effect ([1]; 7.1 Gy TBI, FGF-P 15, 30, 60 mg/kg): dose-dependent effect
- mitigation effect on ARS, DMF ([1]; Balb/c, 6.5, 7 and 7.5 Gy TBI, FGF-P 1 mg/kg IM right after TBI, daily for 5 days): DMF similar to that of native FGF2
- mice survived ([1]; 6.5 Gy TBI): 87%
- mice survived ([1]; 7.5 Gy TBI): 66%
- mitigation effect with delayed delivery ([1]; FGF-P given 8 hour after 7.1 Gy IR): still effective
- bleeding time [2]: shorter bleeding time
- numbers of proliferating crypts in the bowel ([3]; 10.5 Gy sub-TBI, about 3.5 days post-IR, FGF-P 2 mg/kg im, repeated daily for 2 days): increased
- crypt survival ([3]; 10.5 Gy sub-TBI, FGF-P 2 mg/kg im): approximately doubles crypt survival
- proliferating crypts, BrdU staining method ([3]; 12 Gy, P<0.05): A similar result was obtained using the BrdU staining method
- number of proliferating crypts ([3]; 12 Gy, duodenum, jejunum, ileum, P<0.05): higher number of proliferating crypts in duodenum, jejunum and ileum
- crypt numbers in the ileum ([3]; Balb/c, 3.5 days after 12 Gy, FGF-P given after irradiation): Higher numbers of crypts
- villi length ([3]; C57BL/6, 16 Gy sub-TBI, P<0.05): better preserved villi length in the duodenum and jejunum
- crypt numbers ([3]; C57BL/6, doses as high as 16 Gy sub-TBI): improved crypt numbers in all sections of C57BL/6 small bowel
- platelet aggregation [4]: recovered towards normal
